Consider 78 compounds from PubChem BioAssay AID2202554 (NIEHS Division of Translational Toxicology (DTT)).

Records with an inconclusive call do not appear. The source made the active and inactive calls. How the calls were made is not given here.

In the data set the test system is S. typhimurium/E. coli reverse mutation, colony counts. The data set is described as follows: Bacterial reverse mutation test (aka Ames test) summary data. In outline: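 Revertant colony counts on plates, compared with untreated controls, after about two days of growth. Exposure with or without liver S9 (rat/hamster/mouse), dose range per strain, 20-min 37° C preincubation or direct plate incorporation. Strains: his⁻ Salmonella, trp⁻ E. coli WP2 uvrA pKM101.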

Regarding `O=C(Nc1ccc(Br)cc1)c1cc(Br)cc(Br)c1O`, the outcome is “inactive; negative”.

Turning to `CCCCOCCOCCOCc1cc2c(cc1CCC)OCO2`, the outcome is “inactive; negative”.

`O=S(=O)(O)c1cc(N=Nc2c(O)ccc3ccccc23)ccc1-c1ccc(N=Nc2c(O)ccc3ccccc23)cc1S(=O)(=O)O`: the outcome was “inactive; negative”.

In the case of `CCCCC=O`, the outcome is “inactive; negative”.

For `O=C(NCNC(=O)NC1C(=O)NC(=O)N1CO)NC1C(=O)NC(=O)N1CO` (stereo not drawn), the outcome is “active; positive”.

For the compound `O=[N+]([O-])c1ccc2c(c1)Cc1cccc([N+](=O)[O-])c1-2`, the outcome was “active; positive”.

Turning to `NNC(N)=O`, the outcome is “inactive; negative”.

Consider `O=C(O)CS`, for which the outcome is “inactive; negative”.

In the case of `C=C(C)C(=O)OCC`, the outcome was “inactive; negative”.

Take `CCN(CC)c1ccc(N=O)c(O)c1`: the outcome is “inactive; negative”.

On to `O=[N+]([O-])c1ccc(CCO)cc1`, for which the outcome is “active; positive”.

As for `CN1CSC(=S)N(C)C1`, the outcome is “active; weakly positive”.

As for `CCO`, the outcome was “inactive; negative”.

As to `NC1(C(=O)O)CCCC1`, the outcome was “inactive; negative”.

For the compound `Nc1ccccc1C(=O)OC1CCCCC1`, the outcome is “inactive; negative”.

Consider `C[C@H](CCC(=O)O)[C@H]1CC[C@H]2[C@@H]3CC[C@@H]4C[C@H](O)CC[C@]4(C)[C@H]3CC[C@]12C`, for which the outcome is “inactive; negative”.

On to `N#CC(O)c1ccccc1` (stereo not drawn), for which the outcome was “inactive; negative”.

`Clc1ccc(C(Cl)(Cl)Cl)cc1Cl`: the outcome is “active; positive”.

`Cc1ccc([N+](=O)[O-])cc1C(=O)O`: the outcome is “active; positive”.

On to `CN(C)C(=S)N(C)C`, for which the outcome is “inactive; negative”.

With `O=c1c2ccc3c4c(ccc(c24)c2nc4ccccc4n12)c(=O)n1c2ccccc2nc31`, the outcome was “active; positive”.

With `CCCCCCCC(=O)Cl`, the outcome was “active; positive”.

For `Nc1ccc(N=Nc2ccccc2)cc1`, the outcome was “active; positive”.

Regarding `CCCCCCCCCCCOC(=O)c1ccccc1C(=O)OCCCCCCCCCCC`, the outcome was “inactive; negative”.

Consider `ClCCCl`, for which the outcome is “active; positive”.

For `CCN(CC)CC`, the outcome is “inactive; negative”.

Take `CC(=O)CC(=O)Nc1ccccc1`: the outcome is “inactive; negative”.

In the case of `CNC(=O)CSP(=S)(OC)OC`, the outcome is “active; positive”.

As for `COC[CH2][Hg+]`, the outcome is “inactive; negative”.

With `CCc1ccccc1O`, the outcome is “inactive; negative”.

As to `CCCCCCCCCCCCCCCCCCCCCCCCCCCCO`, the outcome was “inactive; negative”.

As to `N[C@@H](Cc1ccc(N(CCCl)CCCl)cc1)C(=O)O`, the outcome was “active; positive”.

For `O=C1OC(=O)c2c(Br)c(Br)c(Br)c(Br)c21`, the outcome is “inactive; negative”.

As to `C=CCc1ccc2c(c1)OCO2`, the outcome is “inactive; negative”.

Turning to `C=C(Cl)CCl`, the outcome is “active; positive”.

With `O=NN1CCCCC1`, the outcome was “active; positive”.

In the case of `COC(C)(C)CC(C)=O`, the outcome was “inactive; negative”.

Regarding `CCCC=NO`, the outcome was “active; weakly positive”.

With `COc1cc(-c2ccc(N=Nc3c(S(=O)(=O)O)cc4cc(S(=O)(=O)O)cc(O)c4c3O)c(OC)c2)ccc1N=Nc1c(S(=O)(=O)O)cc2cc(S(=O)(=O)O)cc(O)c2c1O`, the outcome was “inactive; negative”.

Consider `c1cc2c3c(cccc3c1)CC2`, for which the outcome was “inactive; negative”.

Regarding `NCCNCCO`, the outcome is “active; weakly positive”.

With `Cc1cc(Br)ccc1NC(=O)CCl`, the outcome is “active; positive”.

`CC(CN1c2ccccc2Sc2ccccc21)N(C)C` (stereo not drawn): the outcome was “inactive; negative”.

`CC(C)c1ccccc1`: the outcome was “inactive; negative”.

`N#CCO`: the outcome was “inactive; negative”.

As for `Nc1cccc2c(=O)[nH][nH]c(=O)c12`, the outcome is “inactive; negative”.

Take `NC(=O)c1ccccc1O`: the outcome was “inactive; negative”.

`c1ccc2n[nH]nc2c1`: the outcome is “active; weakly positive”.

`CCc1cc(C(N)=S)ccn1`: the outcome was “inactive; negative”.

For the compound `[K+]`, the outcome is “inactive; negative”.

As for `OC(c1ccc(Cl)cc1)(c1ccc(Cl)cc1)c1ccc(Cl)cc1`, the outcome is “inactive; negative”.

Regarding `C=CC(=O)OCC(CO)(COC(=O)C=C)COC(=O)C=C`, the outcome is “inactive; negative”.

Turning to `O=C(O)CCCc1ccc(N(CCCl)CCCl)cc1`, the outcome was “active; positive”.

Take `COc1cc([N+](=O)[O-])ccc1N=NC(C(C)=O)C(=O)Nc1ccccc1OC` (stereo not drawn): the outcome was “inactive; negative”.

As for `O=C(O)c1ccc(Cl)cc1Cl`, the outcome is “inactive; negative”.

For the compound `CC(Cl)(Cl)[N+](=O)[O-]`, the outcome was “active; positive”.

In the case of `COC(=O)c1ccc(C(=O)OC)cc1`, the outcome is “inactive; negative”.

Take `Cc1cc(Cl)ccc1O`: the outcome is “inactive; negative”.

Turning to `FC(F)(F)c1cccc(Cl)c1`, the outcome was “inactive; negative”.

Regarding `CCCCn1cc[n+](C)c1`, the outcome was “inactive; negative”.

Regarding `CS(C)=O`, the outcome is “inactive; negative”.

As for `CCCCCCCCS(=O)C(C)Cc1ccc2c(c1)OCO2` (stereo not drawn), the outcome is “inactive; negative”.

For the compound `S=c1[nH]c2ccccc2[nH]1`, the outcome is “inactive; negative”.

Regarding `CNN`, the outcome was “inactive; negative”.

As for `CN1C[C@H](C(=O)N[C@]2(C)O[C@@]3(O)[C@@H]4CCCN4C(=O)[C@H](Cc4ccccc4)N3C2=O)C=C2c3cccc4[nH]cc(c34)C[C@H]21`, the outcome is “inactive; negative”.

On to `NCC(=O)O`, for which the outcome is “inactive; negative”.

As to `Clc1cc2c(cc1Cl)Oc1cc(Cl)c(Cl)cc1O2`, the outcome was “inactive; negative”.

`COc1ccc(O)cc1`: the outcome was “inactive; negative”.

With `CC[C@H]1OC(=O)[C@H](C)[C@@H](O[C@H]2C[C@@](C)(OC)[C@@H](O)[C@H](C)O2)[C@H](C)[C@@H](O[C@@H]2O[C@H](C)C[C@H](N(C)C)[C@H]2O)[C@](C)(O)C[C@@H](C)C(=O)[C@H](C)[C@@H](O)[C@]1(C)O`, the outcome was “inactive; negative”.

For the compound `CC[Si](Cl)(Cl)CC`, the outcome was “inactive; negative”.

Consider `CN(Cc1cnc2nc(N)nc(N)c2n1)c1c(Cl)cc(C(=O)N[C@@H](CCC(=O)O)C(=O)O)cc1Cl`, for which the outcome was “active; weakly positive”.

For `CCOP(=S)(OCC)SC1OCCOC1SP(=S)(OCC)OCC` (stereo not drawn), the outcome is “active; positive”.

With `C=CCOC(=O)CC(C)C`, the outcome is “inactive; negative”.

In the case of `CC(N)C(=O)O` (stereo not drawn), the outcome was “inactive; negative”.

With `C[N+](C)(C)CCO`, the outcome is “inactive; negative”.

Consider `CC1=C(/C=C/C(C)=C/C=C/C(C)=C/CO)C(C)(C)CCC1`, for which the outcome was “active; weakly positive”.

As for `Nc1ccc2ccccc2c1`, the outcome is “active; positive”.

Consider `CNc1ccccc1`, for which the outcome is “inactive; negative”.
